Consider seven compounds from patent US11793208B2, “Antimicrobial treatment of animal carcasses and food products” (EVONIK OPERATIONS GMBH, priority 2017, dated 2023).

Series [1] can be described thus: pH of tap water containing acids and alkaline modifiers, before and after contact with chicken breast. Type of series: physicochemical. To be noted: for pH after 1 hour: 1 hour at 4° C. with chicken breast; for pH initial: tap water 4° C., before addition of poultry. As to the method: Organic acids were added to plastic containers containing 5.0 L of tap water at 4° C. The alkaline modifiers, NaOH, Na2CO3, Na2CO3.1.5H2O2, Na3PO4, were added to the solution in the plastic container in an amount sufficient to bring pH to about 7-9 depending upon the pKa of the organic acid. Then, 5 pieces of chicken breast weighing about 200 gram each were added to each container. The solution was then incubated for one hour at 4° C., with periodic stirring. The pH was measured immediately before the addition of the poultry and then after the 1 hour incubation at 4° C.

Series [2] has as its system Salmonella enterica ATCC 14028. Put plainly: Salmonella suspension testing method. It counts as cell-based. The settings on record: for Average Log10 reduction: 60 min treatment, 5% organic load; for kill of Salmonella: organic acid with addition of percarbonate, relatively high pH. As to the method: The effect of organic acids and alkaline modifiers on microbial viability was assayed using a Salmonella suspension testing method as described below. […] A 1:5 dilution of organism was prepared in Butterfield's buffer. This dilution was added in equal parts to sterile fetal bovine serum in order to produce a working inoculum containing a 50% organic load. […] Then, a 1 mL aliquot of working inoculum was added to the test solution and vortexed briefly to mix. A 1 mL aliquot was removed from the mixture at 1, 30, and 60 minutes following inoculation, and immediately added to a 9 mL volume of Letheen neutralizing broth. This broth was then vortex mixed, diluted serially into Butterfield's buffer, and the dilutions plated on 3[…] Aerobic Count Plates. The plates were incubated for 24-48 hours at 35° C., and then counted manually. Log 10 calculations were performed to obtain the Log 10 CFU/mL of the solutions at each time point.

Series [3] is described as follows: Concentration of PAA and H2O2 in the presence of alkaline modifiers. To be noted: for effect of alkaline modifier on concentration of both PAA and hydrogen peroxide: PAA solution with the alkaline modifier, 1 hour at 4° C.; for PAA, ppm Initial / H2O2, ppm Initial: immediately after preparation; for H2O2, ppm in 1 hour / PAA, ppm in 1 hour: after 1 hour at 4° C. It counts as physicochemical.

The test system of series [4] is Escherichia coli Coliform (ECC). Put plainly: Microbial reduction after PAA treatment of chicken livers: Escherichia coli Coliform plates. To be noted: PAA 1000 ppm. Type of series: cell-based. As to the method: (§1) Six chicken livers were added to 500 mL of peracetic acid solution, and incubated room temperature for 5, 15, or 30 seconds. Then the livers were removed and quickly added individually to 100 mL Buffered Peptone Water in a sterile cup, 1 liver per cup. Cups were manually shaken for 30 seconds and the liquid was sampled for plating. Sample rinses were serially diluted using Butterfield's buffer and plated on Aerobic Plate Count (APC) and Escherichia coli Coliform (ECC) plates. The plates were incubated for 24-48 hours at a temperature of 35° C., and then counted manually. Log10 calculations were performed to obtain the Log10 CFU/mL of the solutions at each time point.

The test system of series [5] is Enterobacteriaceae. Put plainly: Microbial load of rinses from treated poultry offal: Enterobacteriaceae count. It counts as cell-based. The settings on record: 8-10 seconds. As to the method: (§2) For offal treatments, mixtures of organic acids and peroxyacids were prepared by weighing the components and dissolving them in water to reach the desired concentration. Peracetic acid (PAA) solutions were prepared by diluting VigorOx® (PeroxyChem LLC) with tap water to obtain the target concentration.
(§3) The pH of the aseptic compositions was adjusted using a 25% aqueous solution of NaOH, solid sodium carbonate, or sodium bicarbonate. The amount of active oxygen was confirmed by titration on an autotitrator and by using Chemetrics test kits K-7913F and K-5543.
(§4) Fresh poultry livers and gizzards, and lamb livers and kidneys were purchased untreated and fresh (not frozen) from local suppliers. All offal was kept refrigerated before testing.
(§5) Poultry offal was collected into a single large plastic bag. A gloved hand was used to remove either 6 whole, bi-lobed livers or 12 gizzards and place them in 350 mL of either water, an 840 ppm PAA solution, or an 840 ppm PAA solution that had been adjusted to a pH of 10.2 with sodium hydroxide and used within 5 minutes of pH adjustment. The samples were incubated in the solutions for 8-10 seconds. After treatment, a freshly gloved hand was used to remove 2 livers (or 4 gizzards) into a small plastic strainer. The treated samples were allowed to drain for 30 to 60 seconds to remove excess moisture. Each set of 2 livers (or 4 gizzards) was then placed into 100 mL peptone buffer and rinsed in the peptone for 30 seconds. A few milliliters of rinsate were removed by transfer pipette and kept on ice for dilution and plating. The plates were incubated for 24 to 48 hours at 35° C. and counted manually to determine the Aerobic Plate Count (APC) and the Enterobacteriaceae count (EBC). The color of the treated samples was noted by visual inspection.

In series [6] the test system is Aerobic Plate Count (APC). Put plainly: Microbial load of rinses from treated poultry offal: Aerobic Plate Count. Type of series: cell-based. The settings on record: 8-10 seconds. As to the method:
as §2, §3, §4, §5

Series [7] deals with Aerobic Plate Count (APC). Put plainly: Microbial reduction after PAA treatment of chicken livers: Aerobic Plate Count. It counts as cell-based. To be noted: PAA 1000 ppm. On the procedure:
as §1

Series [8] has as its system Aerobic Plate Count (APC). Put plainly: Microbial reduction after PAA treatment of lamb livers: Aerobic Plate Count. It counts as cell-based. The settings on record: PAA 100 ppm.
Where [9] appears, read: Citric 2,500 ppm, alkaline modifier Na2CO3•1.5H2O2.
Setting [10] is: Citric 5,000 ppm, alkaline modifier Na2CO3•1.5H2O2.
Setting [11] is: Glycolic 250 ppm, alkaline modifier Na2CO3.
Where [12] appears, read: Glycolic 250 ppm, alkaline modifier NaOH.
The mark [13] stands for this setting: Glycolic 500 ppm, no alkaline modifier.
[14] abbreviates: additive Na5P3O10 125 ppm, initial PAA 10.4 ppm.
Setting [15] is: additive Na5P3O10 125 ppm, initial PAA 30.1 ppm.
[16] abbreviates: alkaline modifier Na2CO3, pH 8.5, treatment time 5 seconds.
Where [17] appears, read: alkaline modifier NaHCO3, pH 7.5, treatment time 15 seconds.
The mark [18] stands for this setting: alkaline modifier NaHCO3, pH 7.5, treatment time 30 seconds.
Where [19] appears, read: alkaline modifier NaOH, pH 7.5, treatment time 5 seconds.
Where [20] appears, read: no alkaline modifier, pH 3.1, treatment time 5 seconds.
[21] abbreviates: no alkaline modifier, pH 3.1, treatment time 15 seconds.
The mark [22] stands for this setting: Gizzards, 840 ppm PAA adjusted to pH 10.2 with sodium hydroxide.
The mark [23] stands for this setting: Livers, 840 ppm PAA adjusted to pH 10.2 with sodium hydroxide.

With `O=C(O)CC(O)(CC(=O)O)C(=O)O` [Citric, citric acid], the “pH after 1 hour” value in series [1] (setting [9]) was determined as 7.5; in series [1] (setting [10]) it was 8.5. Further, the pH initial in series [1] (setting [9]) was 7.5; in series [1] (setting [10]), 8.5. For the same compound, the “Average Log10 reduction” value stood at 7.09 in series [2] (Citric 0.5%, alkaline modifier Na2CO3•1.5H2O2, pH 7.5) and 3.83 in series [2] (Citric 0.5%, no alkaline modifier, pH 2.4). In series [2], the “kill of Salmonella” value is “virtually complete kill”.
For `O=C(O)CO` [Glycolic, glycolic acid], the “pH after 1 hour” value is 6.8 in series [1] (setting [11]), 7.5 in series [1] (setting [12]) and 4.5 in series [1] (setting [13]). Further, the pH initial came to 6.7 in series [1] (setting [11]), 9.0 in series [1] (setting [12]) and 3.6 in series [1] (setting [13]).
Regarding `O=P(O)(O)OP(=O)(O)OP(=O)(O)O` [Na5P3O10, sodium tripolyphosphate, reference compound], the “effect of alkaline modifier on concentration of both PAA and hydrogen peroxide” value (shortened to “effect of alkaline modifier”) in series [3] was “relatively rapid decrease”. Further, the “PAA, ppm Initial” value in series [3] (additive Na5P3O10 125 ppm, higher PAA level) amounted to 30.1 ppm. For the same compound, in series [3] (setting [14]), the “H2O2, ppm in 1 hour” value is given as 1.4 ppm; the “PAA, ppm in 1 hour” value is listed as 4.0 ppm; the “H2O2, ppm Initial” value is given as 6.5 ppm. Moreover, in series [3] (setting [15]), the “H2O2, ppm in 1 hour” value is given as 4.8 ppm; the “PAA, ppm in 1 hour” value turned out to be 8.6 ppm; the “H2O2, ppm Initial” value amounted to 20.1 ppm. The “PAA, ppm Initial” value in series [3] (additive Na5P3O10 125 ppm, lower PAA level) amounted to 10.4 ppm.
Take `O=C([O-])O.[Na+]` [NaHCO3, sodium bicarbonate]: the “effect of alkaline modifier” value in series [3] was “remained relatively stable”. For the same compound, in series [3] (additive NaHCO3 125 ppm), the “H2O2, ppm in 1 hour” value is 6.3 ppm; the “PAA, ppm in 1 hour” value is 8.5 ppm; the “H2O2, ppm Initial” value stood at 6.5 ppm; the “PAA, ppm Initial” value is 10.4 ppm. Moreover, in series [3] (additive NaHCO3 250 ppm), the “H2O2, ppm in 1 hour” value was determined as 18.9 ppm; the “PAA, ppm in 1 hour” value amounted to 29.6 ppm; the “H2O2, ppm Initial” value was 19.9 ppm; the “PAA, ppm Initial” value is 30.3 ppm. In series [3] (additive NaHCO3 275 ppm), the “H2O2, ppm in 1 hour” value was 11 ppm; the “PAA, ppm in 1 hour” value came out at 23 ppm; the “H2O2, ppm Initial” value is on record as 11 ppm; the “PAA, ppm Initial” value was 25 ppm.
With `[Na+].[OH-]` [NaOH, sodium hydroxide, reference compound], the “effect of alkaline modifier” value in series [3] is on record as “relatively rapid decrease”. In series [3] (additive NaOH 100 ppm), the “H2O2, ppm in 1 hour” value came out at 4 ppm; the “PAA, ppm in 1 hour” value came to 8 ppm; the “H2O2, ppm Initial” value came to 11 ppm; the “PAA, ppm Initial” value is reported as 25 ppm.
For `CC(=O)OO` [PAA, Peracetic acid], the “ECC log10 reduction” value in series [4] (setting [16]) is 1.1; in series [4] (setting [17]) it was 3.1; in series [4] (setting [18]), 3.1; in series [4] (setting [19]), 0.8; in series [4] (setting [20]), 0.5; in series [4] (setting [21]), 1.1. Moreover, the “Log EBC” value came out at 0.00 in series [5] (setting [22]); 0.00 in series [5] (Gizzards, 840 ppm PAA, pH 3.4); 0.00 in series [5] (setting [23]); 0.00 in series [5] (Livers, 840 ppm PAA, pH 3.4). Moreover, the “Log APC” value in series [6] (setting [22]) turned out to be 0.85; in series [6] (Gizzards, 840 ppm PAA, pH 3.4), 0.70; in series [6] (setting [23]) it was 0.30; in series [6] (Livers, 840 ppm PAA, pH 3.4), 0.00. Further, the “APC log10 reduction” value in series [7] (setting [16]) is listed as 1.1; in series [7] (setting [17]), 1.1; in series [7] (setting [18]), 1.7; in series [7] (setting [19]), 1.1; in series [7] (setting [20]) it was 0.9; in series [7] (setting [21]) it was 1.2. Besides, the “APC log10 reduction” value is 1.8 in series [8] (additive Citric acid, 2%, pH 7.5 (sodium carbonate), treatment time 10 minutes); 1.8 in series [8] (additive Lactic acid, 2%, pH 7.5 (sodium carbonate), treatment time 10 minutes); 2.2 in series [8] (no additive, pH 4.1, treatment time 10 minutes); 3.0 in series [8] (no additive, pH 7.5 (adjusted with sodium carbonate), treatment time 10 minutes). In addition, the “H2O2, ppm in 1 hour” value in series [3] (no additive (0 ppm)) was 11 ppm. Also, the “PAA, ppm in 1 hour” value in series [3] (no additive (0 ppm)) was 24 ppm. The “H2O2, ppm Initial” value in series [3] (no additive (0 ppm)) is 11 ppm. Besides, the “PAA, ppm Initial” value in series [3] (no additive (0 ppm)) was 25 ppm.
In the case of `CCC(=O)O` [Propionic, propionic acid], the “Average Log10 reduction” value was found to be 7.07 in series [2] (Propionic 0.5%, alkaline modifier Na2CO3•1.5H2O2, pH 7.5) and 2.15 in series [2] (Propionic 0.5%, no alkaline modifier, pH 3.1). The “kill of Salmonella” value in series [2] was “virtually complete kill”.
